Source: PubChem BioAssay AID2060897 (Molecular Pharmacology Branch, DTP, NCI, 2025)

System: 966289-007-R4-J1-PDC complex spheroid viability
Assay: Anticancer human tumor 966289-007-R4-J1-PDC patient-derived pancreatic adenocarcinoma cell line growth inhibition [RAS]
Details: for IC50: curve of first compound; for viability, T/C: stronger effect = lower value
Outline: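 Multi-cell-type spheroids: tumor cells plus HUVEC endothelial cells and mesenchymal stem cells. RAS-pathway inhibitors were combined with targeted agents, each dosed in half-log steps down from clinical Cmax, or from 10 microM when Cmax was unknown.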
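Note: spheroids exposed to agents for one week before readout.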
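Throughout, for viability, T/C: percent viability relative to DMSO vehicle control wells as 100%.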

IC50 (second compound 0.0316 µM): 1.59 nM
IC50 (second compound 0.1 µM): 1.5 nM
IC50 (second compound 0.316 µM): 1.43 nM
IC50 (second compound 1 µM): 1.44 nM
IC50 (second compound 3.16 µM): 1.51 nM
IC50 (second compound 10 µM): 1.4 nM
Structure (SMILES): CCc1c2c(nc3ccc(O)cc13)-c1cc3c(c(=O)n1C2)COC(=O)[C@]3(O)CC + C#Cc1c(F)ccc2cc(O)cc(-c3ncc4c(N5CC6CCC(C5)N6)nc(OCC56CCCN5CC(F)C6)nc4c3F)c12
viability, T/C (second compound 0.0316 µM, first compound 0.000949 µM): 88.6%
viability, T/C (second compound 0.0316 µM, first compound 0.003 µM): 2.5%
viability, T/C (second compound 0.0316 µM, first compound 0.00949 µM): 1.27%
viability, T/C (second compound 0.0316 µM, first compound 0.03 µM): 0.94%
viability, T/C (second compound 0.0316 µM, first compound 0.0949 µM): 1.06%
viability, T/C (second compound 0.0316 µM, first compound 0.3 µM): 1.14%
viability, T/C (second compound 0.1 µM, first compound 0.000949 µM): 81.8%
viability, T/C (second compound 0.1 µM, first compound 0.003 µM): 2.09%
viability, T/C (second compound 0.1 µM, first compound 0.00949 µM): 0.95%
viability, T/C (second compound 0.1 µM, first compound 0.03 µM): 1.18%
viability, T/C (second compound 0.1 µM, first compound 0.0949 µM): 0.87%
viability, T/C (second compound 0.1 µM, first compound 0.3 µM): 1.15%
viability, T/C (second compound 0.316 µM, first compound 0.000949 µM): 76.5%
viability, T/C (second compound 0.316 µM, first compound 0.003 µM): 2.19%
viability, T/C (second compound 0.316 µM, first compound 0.00949 µM): 1.22%
viability, T/C (second compound 0.316 µM, first compound 0.03 µM): 1.04%
viability, T/C (second compound 0.316 µM, first compound 0.0949 µM): 0.89%
viability, T/C (second compound 0.316 µM, first compound 0.3 µM): 1.23%
viability, T/C (second compound 1 µM, first compound 0.000949 µM): 77.1%
viability, T/C (second compound 1 µM, first compound 0.003 µM): 1.99%
viability, T/C (second compound 1 µM, first compound 0.00949 µM): 1.31%
viability, T/C (second compound 1 µM, first compound 0.03 µM): 1.22%
viability, T/C (second compound 1 µM, first compound 0.0949 µM): 1.16%
viability, T/C (second compound 1 µM, first compound 0.3 µM): 1.16%
viability, T/C (second compound 3.16 µM, first compound 0.000949 µM): 82.2%
viability, T/C (second compound 3.16 µM, first compound 0.003 µM): 2.82%
viability, T/C (second compound 3.16 µM, first compound 0.00949 µM): 1.66%
viability, T/C (second compound 3.16 µM, first compound 0.03 µM): 1.34%
viability, T/C (second compound 3.16 µM, first compound 0.0949 µM): 1.54%
viability, T/C (second compound 3.16 µM, first compound 0.3 µM): 1.55%
viability, T/C (second compound 10 µM, first compound 0.000949 µM): 75.1%
viability, T/C (second compound 10 µM, first compound 0.003 µM): 1.37%
viability, T/C (second compound 10 µM, first compound 0.00949 µM): 1.04%
viability, T/C (second compound 10 µM, first compound 0.03 µM): 0.91%
viability, T/C (second compound 10 µM, first compound 0.0949 µM): 0.84%
viability, T/C (second compound 10 µM, first compound 0.3 µM): 0.55%
